Experimental findings from patent publication US20230135152A1 (ACURASTEM INCORPORATED, priority 2020, published 2023) are described below.

For assay [1], the target named is T1, PIKFYVE (Homo sapiens, UniProt Q9Y2I7). The experiment in a line: PIKFYVE assay (luciferase ADP-Glo kinase assay, Promega). It counts as biochemical. Put shortly:
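ADP generated in the kinase reaction was detected by ADP-Glo luminescence (luciferase).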
Background: ADP-Glo first removes unused ATP, then detects ADP through luciferase.

Assay [2] has as its target T1, PIKFYVE. The experiment in a line: Cell-based Pikfyve inhibition activity assay (EEA1 staining, mean vesicle size in BJ fibroblast cells). Particulars: Table 4, 4 hours treatment, 3 μM Apilimod = 100% inhibition. Put shortly:
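BJ fibroblasts treated 4 h at 37° C with eleven 3-fold doses (0.03-3000 nM), then fixed and stained for EEA1. Confocal images (20×, 16 tiles/well) analysed for mean vesicle size. Normalised to 0.5% DMSO (0%) and 3 μM apilimod (100%); dose-response fitted with variable slope.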

T1 sequence (Q9Y2I7 whole entry): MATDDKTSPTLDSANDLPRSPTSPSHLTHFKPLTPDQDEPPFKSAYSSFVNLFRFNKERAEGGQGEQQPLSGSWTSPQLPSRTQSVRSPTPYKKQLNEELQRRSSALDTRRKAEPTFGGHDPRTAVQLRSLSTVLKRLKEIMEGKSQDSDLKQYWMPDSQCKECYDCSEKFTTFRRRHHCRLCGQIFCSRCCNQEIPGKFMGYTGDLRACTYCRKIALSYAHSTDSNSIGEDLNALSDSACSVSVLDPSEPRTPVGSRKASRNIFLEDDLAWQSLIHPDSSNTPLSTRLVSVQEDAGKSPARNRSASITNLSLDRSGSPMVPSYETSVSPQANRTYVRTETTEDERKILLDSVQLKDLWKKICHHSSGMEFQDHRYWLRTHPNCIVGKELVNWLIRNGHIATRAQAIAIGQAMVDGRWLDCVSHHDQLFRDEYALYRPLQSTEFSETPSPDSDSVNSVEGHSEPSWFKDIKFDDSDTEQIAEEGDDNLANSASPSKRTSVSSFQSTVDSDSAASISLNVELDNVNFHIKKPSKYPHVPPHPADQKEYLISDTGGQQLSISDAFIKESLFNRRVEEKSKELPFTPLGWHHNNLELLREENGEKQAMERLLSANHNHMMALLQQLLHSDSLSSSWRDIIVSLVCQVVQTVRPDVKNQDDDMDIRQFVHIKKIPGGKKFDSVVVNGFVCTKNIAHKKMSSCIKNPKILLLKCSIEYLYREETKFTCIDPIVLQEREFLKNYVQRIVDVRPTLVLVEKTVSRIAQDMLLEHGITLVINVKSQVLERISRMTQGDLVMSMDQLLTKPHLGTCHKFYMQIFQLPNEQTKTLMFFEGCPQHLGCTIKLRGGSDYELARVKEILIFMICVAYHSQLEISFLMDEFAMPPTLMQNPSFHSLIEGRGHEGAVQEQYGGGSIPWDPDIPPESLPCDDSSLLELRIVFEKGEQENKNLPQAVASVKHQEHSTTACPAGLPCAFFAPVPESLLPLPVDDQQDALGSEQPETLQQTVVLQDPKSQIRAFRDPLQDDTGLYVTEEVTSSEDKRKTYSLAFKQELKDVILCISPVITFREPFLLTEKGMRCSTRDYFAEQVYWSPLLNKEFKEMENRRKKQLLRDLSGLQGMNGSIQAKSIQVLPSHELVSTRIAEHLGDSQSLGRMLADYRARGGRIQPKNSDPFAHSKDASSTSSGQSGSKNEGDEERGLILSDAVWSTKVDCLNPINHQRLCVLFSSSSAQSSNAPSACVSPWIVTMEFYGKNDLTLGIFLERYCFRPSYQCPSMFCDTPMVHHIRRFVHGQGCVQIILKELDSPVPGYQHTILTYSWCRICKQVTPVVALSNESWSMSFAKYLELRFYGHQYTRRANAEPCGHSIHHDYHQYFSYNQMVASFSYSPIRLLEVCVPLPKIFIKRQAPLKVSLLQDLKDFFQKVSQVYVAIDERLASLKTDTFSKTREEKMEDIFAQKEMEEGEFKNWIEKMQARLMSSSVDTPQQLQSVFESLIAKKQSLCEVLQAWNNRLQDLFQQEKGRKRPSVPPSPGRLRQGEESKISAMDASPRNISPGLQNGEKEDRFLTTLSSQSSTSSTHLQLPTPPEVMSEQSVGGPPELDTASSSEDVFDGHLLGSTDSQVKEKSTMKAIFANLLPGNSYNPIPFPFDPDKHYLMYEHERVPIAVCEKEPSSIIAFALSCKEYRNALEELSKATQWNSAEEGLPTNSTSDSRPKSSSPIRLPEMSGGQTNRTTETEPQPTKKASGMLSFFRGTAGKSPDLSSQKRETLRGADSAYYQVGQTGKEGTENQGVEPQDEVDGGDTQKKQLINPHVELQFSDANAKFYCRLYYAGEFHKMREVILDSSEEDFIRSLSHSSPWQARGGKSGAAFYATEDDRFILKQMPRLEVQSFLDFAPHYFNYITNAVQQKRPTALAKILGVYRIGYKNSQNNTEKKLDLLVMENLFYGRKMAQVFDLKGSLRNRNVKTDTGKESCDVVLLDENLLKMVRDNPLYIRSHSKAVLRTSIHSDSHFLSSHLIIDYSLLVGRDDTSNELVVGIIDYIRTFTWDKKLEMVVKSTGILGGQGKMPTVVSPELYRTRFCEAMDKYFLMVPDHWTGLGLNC

In general, IC50 refers to the concentration that gives 50% inhibition. Read a low IC50 as inhibition by little substance. By EC50 is commonly meant the midpoint of the concentration-response curve. Turning to `Cc1cccc(-c2ccn(-c3cc(N4CCOCC4)nc(OCC4(C)COC4)n3)n2)c1` [Compound 176, 4-(2-((3-methyloxetan-3-yl)methoxy)-6-(3-(m-tolyl)-1H-pyrazol-1-yl)pyrimidin-4-yl)morpholine], the IC50 against PIKFYVE [1] (Table 3) was under 3 nM. In addition, the EC50 at PIKFYVE [2] was in the range of 100 to 500 nM.
In the same order, the values of `Cn1cc(CCOc2nc(N3CCOCC3)cc(-n3nc(-c4ccccc4)cc3CO)n2)cn1` [Compound 233, (1-(2-(2-(1-methyl-1H-pyrazol-4-yl)ethoxy)-6-morpholinopyrimidin-4-yl)-3-phenyl-1H-pyrazol-5-yl)methanol] are under 3 nM and 20 to 100 nM.
The like results for `Cc1cccc(-c2ccn(-c3cc(N4CCOCC4)nc(OCCN)n3)n2)c1` [Compound 209, 2-((4-morpholino-6-(3-(m-tolyl)-1H-pyrazol-1-yl)pyrimidin-2-yl)oxy)ethan-1-amine] were, in that order, 10 to 100 nM and 100 to 500 nM.
The like results for `Cn1cc(CCOc2nc(N3CCOCC3)cc(-n3ccc(-c4cccc(F)c4)n3)n2)cn1` [Compound 195, 4-(6-(3-(3-fluorophenyl)-1H-pyrazol-1-yl)-2-(2-(1-methyl-1H-pyrazol-4-yl)ethoxy)pyrimidin-4-yl)morpholine] were, in that order, under 3 nM and 20 to 100 nM.
On to `Cc1cccc(-c2ccn(-c3cc(N4CCOCC4)nc(CCc4ccnn4C)n3)n2)c1` [Compound 338, 4-(2-(2-(1-methyl-1H-pyrazol-5-yl)ethyl)-6-(3-(m-tolyl)-1H-pyrazol-1-yl)pyrimidin-4-yl)morpholine], for which the IC50 against PIKFYVE [1] (Table 3) is 3 to 10 nM. The EC50 at PIKFYVE [2] was over 5000 nM.
The like results for `CO[C@@H](C)c1cccc(-c2ccn(-c3cc(N4CCOCC4)nc(OCCc4cnn(C)c4)n3)n2)c1` (single isomer, unassigned) [Compound 341] were, in that order, under 3 nM and under 20 nM.
In the same order, the values of `Cc1cc(-c2c[nH]c3ccccc23)nn1-c1cc(N2CCOCC2)nc(C2COCCO2)n1` (single isomer, unassigned) [Compound 344] are under 3 nM and under 20 nM.
As for `Cn1cc(C(O)C#Cc2nc(N3CCOCC3)cc(-n3ccc(-c4ccccc4)n3)n2)cn1` (stereo not drawn) [Compound 80, 1-(1-methyl-1H-pyrazol-4-yl)-3-(4-morpholino-6-(3-phenyl-1H-pyrazol-1-yl)pyrimidin-2-yl)prop-2-yn-1-ol], on PIKFYVE [1] (Table 2), the IC50 was under 5 nM. In addition, the EC50 on PIKFYVE [2] lay within 20 to 100 nM.
Turning to `CC#CCCOc1nc(N2CCOCC2)cc(-n2ccc(-c3cccc(C)c3)n2)n1` [Compound 104, 4-(2-(pent-3-yn-1-yloxy)-6-(3-(m-tolyl)-1H-pyrazol-1-yl)pyrimidin-4-yl)morpholine], the half-maximal inhibitory concentration (IC50) on PIKFYVE [1] (Table 3) was under 3 nM. On PIKFYVE [2], the EC50 was in the range of 20 to 100 nM.
The like results for `COc1ccc(CCOc2nc(N3CCOCC3)cc(-n3ccc(-c4cccc(C)c4)n3)n2)cc1OC` [Compound 105, 4-(2-(3,4-dimethoxy-phenethoxy)-6-(3-(m-tolyl)-1H-pyrazol-1-yl)pyrimidin-4-yl)morpholine] were, in that order, under 3 nM and under 20 nM.
In the case of `Cc1cccc(-c2ccn(-c3cc(N4CCOCC4)nc(OCC(=O)C4CC4)n3)n2)c1` [Compound 109, 1-cyclopropyl-2-((4-morpholino-6-(3-(m-tolyl)-1H-pyrazol-1-yl)pyrimidin-2-yl)oxy)ethan-1-one], the IC50 on PIKFYVE [1] (Table 3) fell in the range of 3 to 10 nM. At PIKFYVE [2], the EC50 fell in the range of 20 to 100 nM.
In the same order, the values of `OC(c1ccccc1)c1nc(N2CCOCC2)cc(-n2ccc(-c3ccccc3)n2)n1` (stereo not drawn) [Compound 183, (4-morpholino-6-(3-phenyl-1H-pyrazol-1-yl)pyrimidin-2-yl)(phenyl)methanol] are 10 to 100 nM and 100 to 500 nM.
Consider `CO[C@@H](CO)c1nc(N2CCO[C@@H](C)C2)cc(-n2ccc(-c3cccc(C)c3)n2)n1` (single isomer, unassigned) [Compound 306], for which the IC50 against PIKFYVE [1] (Table 3) is 100 to 5000 nM. Also, the EC50 at PIKFYVE [2] is over 5000 nM.
With `Cc1cccc(-c2ccn(-c3cc(N4CCOCC4)nc(NC(=O)Cc4cnn(C)c4)n3)n2)c1` [Compound 186, 2-(1-methyl-1H-pyrazol-4-yl)-N-(4-morpholino-6-(3-(m-tolyl)-1H-pyrazol-1-yl)pyrimidin-2-yl)acetamide], at PIKFYVE [1] (Table 3), the half-inhibitory concentration (IC50) is under 3 nM. At PIKFYVE [2], this compound came in with an EC50 of 100 to 500 nM.
The like results for `CO[C@H](CO)c1nc(N2CCOCC2)cc(-n2nc(-c3ccccc3)cc2C)n1` (single isomer, unassigned) [Compound 205] were, in that order, 10 to 100 nM and 500 to 5000 nM.
In the same order, the values of `Cc1cccc(-c2ccn(-c3cc(N4CCOCC4)nc(CCC(O)c4cnn(C)c4)n3)n2)c1` (stereo not drawn) [Compound 231, 1-(1-methyl-1H-pyrazol-4-yl)-3-(4-morpholino-6-(3-(m-tolyl)-1H-pyrazol-1-yl)pyrimidin-2-yl)propan-1-ol] are under 3 nM and 20 to 100 nM.
In the same order, the values of `COC(Cc1ccccc1)c1nc(N2CCOCC2)cc(-n2ccc(-c3ccccc3)n2)n1` (stereo not drawn) [Compound 177, 4-(2-(1-methoxy-2-phenylethyl)-6-(3-phenyl-1H-pyrazol-1-yl)pyrimidin-4-yl)morpholine] are 10 to 100 nM and 500 to 5000 nM.
Take `Cc1cccc(-c2ccn(-c3cc(N4CCOCC4)nc(OCCOc4ccccc4)n3)n2)c1` [Compound 93, 4-(2-(2-phenoxyethoxy)-6-(3-(m-tolyl)-1H-pyrazol-1-yl)pyrimidin-4-yl)morpholine]: the IC50 against PIKFYVE [1] (Table 3) lay within 10 to 100 nM. The compound further displayed an EC50 on PIKFYVE [2] of 100 to 500 nM.
The like results for `CO[C@H](CO)c1nc(N2CCOCC2)cc(-n2ccc(-c3cccc4ncsc34)n2)n1` [Compound 274, (S)-2-(4-(3-(benzo[d]thiazol-7-yl)-1H-pyrazol-1-yl)-6-morpholinopyrimidin-2-yl)-2-methoxyethan-1-ol] were, in that order, 100 to 5000 nM and over 5000 nM.
With `Cc1cccc(-c2ccn(-c3cc(N4CCOCC4)nc(CCc4ncccn4)n3)n2)c1` [Compound 43], at PIKFYVE [1] (Table 2), the IC50 is under 5 nM. The compound also displayed an EC50 on PIKFYVE [2] of 20 to 100 nM.
On PIKFYVE [1] (Table 3), `CO[C@H](CO)c1nc(N2CCO[C@H](C)C2)cc(-n2ccc(-c3cccc(C)c3)n2)n1` (single isomer, unassigned) [Compound 307] displayed a concentration for half-maximal inhibition (IC50) of 10 to 100 nM. At PIKFYVE [2], the EC50 is over 5000 nM.
At PIKFYVE [1] (Table 3), `Cc1ccc(C)c(-c2ccn(-c3cc(N4CCOCC4)nc(OCCc4cnn(C)c4)n3)n2)c1` [Compound 197, 4-(6-(3-(2,5-dimethylphenyl)-1H-pyrazol-1-yl)-2-(2-(1-methyl-1H-pyrazol-4-yl)ethoxy)pyrimidin-4-yl)morpholine] yielded an IC50 of 3 to 10 nM. At PIKFYVE [2], this compound had a half-maximal effective concentration (EC50) of 100 to 500 nM.
At PIKFYVE [1] (Table 3), `Cc1cccc(-c2ccn(-c3cc(N4CCOCC4)nc(OCCc4c[nH]cn4)n3)n2)c1` [Compound 119, 4-(2-(2-(1H-imidazol-4-yl)ethoxy)-6-(3-(m-tolyl)-1H-pyrazol-1-yl)pyrimidin-4-yl)morpholine] gave an IC50 of 3 to 10 nM. The same compound showed a concentration for a half-maximal effect (EC50) on PIKFYVE [2] of 20 to 100 nM.
In the same order, the values of `Cc1cccc(-c2ccn(-c3cc(N4CCOCC4)nc(COCc4cn[nH]c4)n3)n2)c1` [Compound 300, 4-(2-(((1H-pyrazol-4-yl)methoxy)methyl)-6-(3-(m-tolyl)-1H-pyrazol-1-yl)pyrimidin-4-yl)morpholine] are under 3 nM and 20 to 100 nM.
Take `Cc1cccc(-c2ccn(-c3cc(N4CCOCC4)nc(NCCO)n3)n2)c1` [Compound 208, 2-((4-morpholino-6-(3-(m-tolyl)-1H-pyrazol-1-yl)pyrimidin-2-yl)amino)ethan-1-ol]: the 50% inhibitory concentration (IC50) at PIKFYVE [1] (Table 3) was 3 to 10 nM. The compound also registered a half-maximal effective concentration (EC50) on PIKFYVE [2] of 20 to 100 nM.
Regarding `CC[C@H](OC)c1nc(N2CCOCC2)cc(-n2ccc(-c3cccc(C)c3)n2)n1` (single isomer, unassigned) [Compound 323], the half-inhibitory concentration (IC50) at PIKFYVE [1] (Table 3) was 10 to 100 nM. On PIKFYVE [2], this compound yielded a 50% effective concentration (EC50) of 500 to 5000 nM.
The like results for `CC#CCOc1nc(N2CCOCC2)cc(-n2ccc(-c3cccc(C)c3)n2)n1` [Compound 103, 4-(2-(but-2-yn-1-yloxy)-6-(3-(m-tolyl)-1H-pyrazol-1-yl)pyrimidin-4-yl)morpholine] were, in that order, 3 to 10 nM and 100 to 500 nM.
In turn, `COCc1cc(-c2ccccc2)nn1-c1cc(N2CCOCC2)nc(OCCc2cnn(C)c2)n1` [Compound 217, 4-(6-(5-(methoxymethyl)-3-phenyl-1H-pyrazol-1-yl)-2-(2-(1-methyl-1H-pyrazol-4-yl)ethoxy)pyrimidin-4-yl)morpholine] registered an IC50 at PIKFYVE [1] (Table 3) of under 3 nM. At PIKFYVE [2], this compound showed a concentration giving a half-maximal response (EC50) of 20 to 100 nM.
In the same order, the values of `Cc1cccc(-c2cc(CO)n(-c3cc(N4CCOCC4)nc(OCCc4cnn(C)c4)n3)n2)c1` [Compound 234, (1-(2-(2-(1-methyl-1H-pyrazol-4-yl)ethoxy)-6-morpholinopyrimidin-4-yl)-3-(m-tolyl)-1H-pyrazol-5-yl)methanol] are under 3 nM and under 20 nM.
The compound `COC(CO)c1nc(N2CCOCC2)cc(-n2ccc(-c3cccc(C)c3)n2)n1` (racemic) [Compound 156, 2-methoxy-2-(4-morpholino-6-(3-(m-tolyl)-1H-pyrazol-1-yl)pyrimidin-2-yl)ethan-1-ol] showed an IC50 against PIKFYVE [1] (Table 3) of 3 to 10 nM. The EC50 on PIKFYVE [2] is 100 to 500 nM.
For `CCc1cccc(-c2ccn(-c3cc(N4CCOCC4)nc([C@@H](CO)OC)n3)n2)c1` [Compound 272, (S)-2-(4-(3-(3-ethylphenyl)-1H-pyrazol-1-yl)-6-morpholinopyrimidin-2-yl)-2-methoxyethan-1-ol], on PIKFYVE [1] (Table 3), the half-maximal inhibitory concentration (IC50) is 3 to 10 nM. The compound also displayed a half-maximal effective concentration (EC50) on PIKFYVE [2] of 100 to 500 nM.
In the same order, the values of `Cc1cccc(-c2ccn(-c3cc(N4CCOCC4)nc(OCC#N)n3)n2)c1` [Compound 174, 2-((4-morpholino-6-(3-(m-tolyl)-1H-pyrazol-1-yl)pyrimidin-2-yl)oxy)acetonitrile] are 3 to 10 nM and 100 to 500 nM.
In the same order, the values of `Cn1cc(CCOc2nc(N3CCOCC3)cc(-n3ccc(-c4ccccn4)n3)n2)cn1` [Compound 194, 4-(2-(2-(1-methyl-1H-pyrazol-4-yl)ethoxy)-6-(3-(pyridin-2-yl)-1H-pyrazol-1-yl)pyrimidin-4-yl)morpholine] are 3 to 10 nM and 100 to 500 nM.
